Legend:
[1] = I = 0.05 (KCl); cited from earlier work
[2] = test system: I172A mutant TbbTIM; test: Competitive inhibition of TIM-catalyzed isomerization of GAP by phosphoglycolate; type: biochemical, Trypanosoma brucei brucei; settings: pH < 6
[3] = molecular target: wildtype TbbTIM (triosephosphate isomerase) (Trypanosoma brucei brucei, UniProt P04789); test: as above; type: biochemical; settings: relative to 14 kcal/mol estimated for GAP
[4] = molecular target: L232A mutant TbbTIM (Trypanosoma brucei brucei, UniProt P04789, L232A); test: as above; type: biochemical

O=C(O)COP(=O)(O)O [PGA, Phosphoglycolate]
pKa for ionization of HI^2− to form I^3− [1]: 6.5
fold lower affinity of the mutant compared with the wildtype enzyme for I^3− [2]: 100 fold
fraction of the total intrinsic transition state binding energy for TIM expressed [3]: ~ 80%
fold increase in the affinity of the enzyme for I^3− from the L232A mutation ([4]; pH 8.3, relative to wildtype): 20 fold
Ki ([4]; read-out: Ki for inhibition by PGA trianion I^3−, pH 8.3, 25 °C, I = 0.1 (NaCl)): 12 µM
